Results published in patent US20060008800A1, “Unc-13 in the modulation of neurotransmission and secretion events” (priority 2002, published 2006).

What was measured:
[1] = test system: hippocampal neurons; assay: β-phorbol ester induced potentiation of evoked synaptic currents in autaptic neuron cultures (patch clamp); format: cell-based, mouse; conditions: for β-phorbol ester induced EPSC potentiation (synaptic potentiation): PDBU 100-1000 nM; for EPSC potentiation: PDBU
Experimental: Microisland culture preparation was performed according to Bekkers and Stevens (1991). The extracellular medium contained (mM): NaCl, 167; KCl, 2.4; HEPES, 10; glucose, 10; CaCl2, 4; MgCl2, 4 (340 mOsm, pH 7.3). Solutions were applied and recordings were performed as described in Rosenmund (1995). To examine synaptically activated currents, experiments were performed using recurrent synapses (autapses) or only single autaptic neuroeses on microisland cultures at room temperature (=24° C.). Pipette solutions included (mM): KCl, 120, or K-Gluconate, 125; HEPES, 10; EGTA, 1; MgCl2, 4.6; Na4ATP, 4; Creatinephosphate, 15; creatinephosphokinase 50 U/ml (320 mOsm, pH 7.3). Wild type and Munc13-1 deficient glutamatergic hippocampal neurons were used to study the characteristics of Munc13-1 and Munc13-1 independent synapses. For these purposes, individual neurons grown on microisland beds of glial cells (Bekkers, 1991) were employed. In this autaptic culture system, where isolated nerve cells make multiple synaptic contacts, so called autapses, with their own dendritic trees, spontaneous transmitter release, release of the readily releasable vesicle pool induced by hypertonic solutions, and action potential evoked release arise from the same synapse population and can be measured readily with patch clamp techniques. Autaptic responses were obtained after brief (1-2 ms) somatic depolarization. This induces an unclamped action potential that is followed by a postsynaptic response with a delay of 2-4 ms. Excitatory, glutamatergic and inhibitory, GABAergic synaptic currents were distinguished by their characteristic pharmacological and kinetic properties. Excitatory glutamatergic cells were mainly characterized because the differential equipment of presynaptic terminals formed by the same axon with Munc13 priming factors is not apparent in GABAergic neurons.
Design of and infection with Semliki Forest Virus was done according to published procedures (Betz, 2001; Ashery, 2000). Cells were measured 22-26 h after infection.
Routinely, cells from Munc13-1^H567K/Munc13-1^H567K mutants were analyzed 12-20 day after plating and compared to wild type control cells obtained from littermates. In some experiments we employed Munc13-1/Munc13-2 double deficient neurons as model cells to study the characteristics of the Munc13-1^H567K variant in comparison to wild type Munc13-1 following overexpression using the Semliki-Forest-Virus system. In contrast to Munc13-1 deficient glutamatergic hippocampal neurons, which still show measurable glutamate release (10% of wild type levels; Augustin, 1999b), double homozygous Munc13-1/Munc13-2 deletion mutant neurons are characterized by a complete lack of spontaneous and evoked transmitter release but can be rescued by reintroduction of Munc13 proteins. This rescue approach was persued in Munc13-1/Munc13-2 double mutant neurons instead of breeding the Munc13-1^H567K/Munc 3-1^H567K mutation into the Munc13-2 deletion mutant background because it was much faster and allowed the direct comparison of additional mutant (Betz, 2001) and wild type Munc13-1 variants in the same cultures. Autaptic responses were obtained after brief (1-2 ms) somatic depolarization. This induces an unclamped action potential that is followed by a postsynaptic response with a delay of 2-4 ms. Excitatory, glutamatergic synaptic currents were identified by their characteristic pharmacological and kinetic properties.

[2] = test system: hippocampal neurons; assay: Readily releasable vesicle pool size by hypertonic sucrose application; format: cell-based, mouse; conditions: in response to PDBU
Experimental: Microisland culture preparation was performed according to Bekkers and Stevens (1991). The extracellular medium contained (mM): NaCl, 167; KCl, 2.4; HEPES, 10; glucose, 10; CaCl2, 4; MgCl2, 4 (340 mOsm, pH 7.3). Solutions were applied and recordings were performed as described in Rosenmund (1995). To examine synaptically activated currents, experiments were performed using recurrent synapses (autapses) or only single autaptic neuroeses on microisland cultures at room temperature (=24° C.). Pipette solutions included (mM): KCl, 120, or K-Gluconate, 125; HEPES, 10; EGTA, 1; MgCl2, 4.6; Na4ATP, 4; Creatinephosphate, 15; creatinephosphokinase 50 U/ml (320 mOsm, pH 7.3). […] In this autaptic culture system, where isolated nerve cells make multiple synaptic contacts, so called autapses, with their own dendritic trees, spontaneous transmitter release, release of the readily releasable vesicle pool induced by hypertonic solutions, and action potential evoked release arise from the same synapse population and can be measured readily with patch clamp techniques. […]
Synaptic depression in wild type neurons has been interpreted as depletion of the readily releasable pool of vesicles because pool sizes and synaptic responses are reduced in parallel during high frequency stimulation. […]

[3] = test system: PKCs; format: cell-based, mouse
[4] = test system: Munc13-1 deficient hippocampal neurons; assay: EPSC augmentation following high frequency action potential trains in Munc13-1 deficient, Munc13-2 dependent neurons; format: cell-based, mouse; conditions: 1 μM PDBU; Munc13-2 dependent cells
[5] = test system: hippocampal neurons; assay: Effect of PDBU on mEPSC frequency in autaptic neurons; format: cell-based, mouse; conditions: 1 μM PDBU
Experimental: Microisland culture preparation was performed according to Bekkers and Stevens (1991). The extracellular medium contained (mM): NaCl, 167; KCl, 2.4; HEPES, 10; glucose, 10; CaCl2, 4; MgCl2, 4 (340 mOsm, pH 7.3). Solutions were applied and recordings were performed as described in Rosenmund (1995). To examine synaptically activated currents, experiments were performed using recurrent synapses (autapses) or only single autaptic neuroeses on microisland cultures at room temperature (=24° C.). Pipette solutions included (mM): KCl, 120, or K-Gluconate, 125; HEPES, 10; EGTA, 1; MgCl2, 4.6; Na4ATP, 4; Creatinephosphate, 15; creatinephosphokinase 50 U/ml (320 mOsm, pH 7.3). Wild type and Munc13-1 deficient glutamatergic hippocampal neurons were used to study the characteristics of Munc13-1 and Munc13-1 independent synapses. […] In this autaptic culture system, where isolated nerve cells make multiple synaptic contacts, so called autapses, with their own dendritic trees, spontaneous transmitter release, release of the readily releasable vesicle pool induced by hypertonic solutions, and action potential evoked release arise from the same synapse population and can be measured readily with patch clamp techniques. […]
Routinely, cells from Munc13-1^H567K/Munc13-1^H567K mutants were analyzed 12-20 day after plating and compared to wild type control cells obtained from littermates. […]

[6] = test system: NMDA receptors; assay: Use dependent block of synaptic NMDA EPSCs by MK-801; format: cell-based, mouse; conditions: 5 μM; 120 evoked NMDA EPSCs; Munc13-1 deficient neurons
[7] = test system: NMDA receptors; conditions: cited from earlier work
[8] = 1 μM PDBU, Munc13-1^H567K/Munc13-1^H567K neurons
[9] = Munc13-1 dominated wild type synapses
[10] = after 1 μM PDBU, wildtype neurons

In the case of `CCCC(=O)O[C@@H]1[C@@H](C)[C@@]2(O)[C@@H](C=C(CO)C[C@]3(O)C(=O)C(C)=C[C@@H]23)[C@@H]2C(C)(C)[C@]12OC(=O)CCC` [PDBU], the “β-PE induced increase in evoked EPSCs” value ([1]; 1 μM PDBU alone, wild type neurons (GÖ 6983 experiment)) is reported as 160±9 % of baseline values, the “increase of evoked EPSC amplitudes over baseline value” ([1]; 1 μM PDBU for 1 min, wild type neurons, before bisindolylmaleimide I) is reported as 90±19% and the “evoked EPSC amplitudes” value ([1]; 1 μM PDBU for one minute, wildtype neurons) is reported as 191±17 % of baseline values. The “evoked EPSCs” value ([1]; 1 μM PDBU, Munc13-1/Munc13-2 double deficient cells overexpressing Munc13-1^H567K) was 108±5 % of control levels, the “evoked EPSCs” value ([1]; 1 μM PDBU, Munc13-1/Munc13-2 double deficient neurons overexpressing wild type Munc13-1) was 246±22 % of control levels and the “evoked EPSC amplitudes” value [1, 8] was 131±7 % of baseline values. For the same compound, the “time constant of increase in evoked EPSC amplitudes” value [1, 8] was 16 s, the “time constant of enhancement of evoked EPSC amplitudes” value ([1]; 1 μM PDBU, wildtype neurons) was 8 s and the “phorbol ester induced potentiation of evoked responses” value ([1]; PDBU 1 μM, rescue with C1-DAG binding mutant ubMunc13-2(H491K)) was 1.04±0.03. The “phorbol ester induced potentiation of evoked responses” value ([1]; PDBU 1 μM, rescue with Calmodulin binding deficient mutant ubMunc13-2(W387R)) was 2.9±0.4 fold, the “β-phorbol ester induced EPSC potentiation (synaptic potentiation)” value ([1]; Munc13-1 deficient, Munc13-2 dependent synapses) was 570±118% and the “β-phorbol ester induced EPSC potentiation (synaptic potentiation)” value [1, 9] was 199±25%. For the same compound, the “phorbol ester induced potentiation of evoked responses” value ([1]; PDBU at 1 μM for 1 minute, double deficient neurons rescued with wildtype ubMunc13-2) was 3.9±1.1 fold, the EPSC potentiation ([1]; Munc13-1/Munc13-2 double deficient neurons rescued with Munc13-1) was 247±22% and the EPSC potentiation ([1]; Munc13-1/Munc13-2 double deficient neurons rescued with ubMunc13-2) was 510±83%. The “time constant of return to baseline after removal” value [1, 10] was 27 s, the “time for synaptic amplitude to return to baseline after removal” value [1, 10] was 3 to 4 min and the “β-Phorbol ester induced potentiation of IPSCs” value ([1]; compared with EPSCs, wild type and Munc13-1 deficient neurons) was “much less pronounced”. For the same compound, the phorbol ester response ([1]; rescue with ubMunc13-2 deletion construct lacking the first 400 amino acids) was 4.5±1.3 fold increase, the “increase of readily releasable vesicle pool” value [2, 9] was 11±5% and the “increase of readily releasable vesicle pool” value ([2]; Munc13-2 dependent synapses) was 30±15%. The “phosphorylation of Munc13-1” value [3] was “weakly phosphorylated in a constitutive, β-PE independent manner”, the “phosphorylation of SNAP-25 and GAP-43” value [3] was “strongly phosphorylated” and the “additivity of β-phorbol ester induced potentiation and train induced augmentation” value [4] was “not additive”. The mEPSC frequency ([5]; Munc13-1^H567K/Munc13-1^H567K cells) was 127±16 % of control levels and the mEPSC frequency ([5]; wildtype neurons) was 239±34 % of control levels.

For `C[C@]12N[C@H](Cc3ccccc31)c1ccccc12` [MK-801], the “reduction of the NMDA EPSC component” value [6] is given as “more than 90%”, the “synaptic NMDA receptors activated and blocked during synaptic activity” value ([7]; Munc13-1 deficient cells) is given as 20% and the “cellular NMDA receptors activated and blocked during synaptic activity” value ([7]; wild type cells) is given as 75%.
